Among the data in patent publication US20250261639A1, “ZEALACTONE DERIVATIVES AS PLANT GROWTH REGULATORS” (SYNGENTA CROP PROTECTION AG, priority 2020, published 2025) are IC50, change in vivo and percent reduction of T50 germination time vs untreated control values, retold here.

The subject of test [1] is Corn leaf discs (variety Multitop). In words: Dark induced senescence of corn leaf. The note with it: Zea mays, foliar, 192 h; leaf discs in the dark, 23° C., 75% humidity, 8 days, 0.5% DMSO; read-out: IC50 (concentration at which 50% senescence was achieved). The protocol: It is known that strigolactones regulate (accelerate) leaf senescence, potentially through D14 receptor signaling. It is also known that senescence is an important process allowing reallocation of nutrients. Compounds of formula (I) were tested in a corn leaf dark induced senescence assay and compared to untreated control.
Corn plants of variety Multitop were grown in a greenhouse with relative 75% humidity and at 23-25° C. for 6 weeks. 1.4 cm diameter leaf discs were placed into 24-well plates containing a test compounds in a concentration gradient (100 μM-0.0001 μM) at a final concentration of 0.5% DMSO. Each concentration was tested in 12 replicates. Plates were sealed with seal foil. The foil was pierced to provide gas exchange in each well. The plates were placed into the completely dark climatic chamber. Plates were incubated in the chamber with 75% humidity and at 23° C. for 8 days. On days 0, 5, 6, 7 and 8 photographs were taken of each plate, and image analysis conducted with a macro developed using the ImageJ software. The image analysis was used to determine the concentration at which 50% senescence was achieved (IC50). The lower the value, the higher senescence induction potency.

Test [2] deals with Corn seeds (var. NK Falkone). Description: Corn seed germination under cold stress conditions. The settings on record: Zea mays, 15° C., 60% Relative Humidity; for change in vivo at 250 µM: read-out: increase of the slope of the curve at Tso (uniformity of germination) compared to untreated control; for percent reduction of T50 germination time vs untreated control at 250 µM: read-out: reduction of the Tso value (time taken for 50% germination; speed of germination) in comparison with untreated control. It counts as in vivo. On the procedure: Method: Corn seeds (var. NK Falkone, Syngenta Seeds SAS, St. Sauveur, France) were sorted by size using a sieve to eliminate round seeds. The corn seeds were placed in 24 well plates (1 seed per well, each plate was considered as one experimental unit or replicate). Germination was initiated by the addition of 250 μL of distilled water containing 0.5% DMSO per well (and the tested the substance at the given concentration). 8 replicates (i.e., 8 plates) were used for each treatment characterization. Plates were sealed using seal foil (Polyolefin Art. Nr. 900320) from HJ-BIOANALYTIK. All plates were placed in a climatic chamber at 15° C. with 60% Relative Humidity. The experiment was laid out in a completely randomized design.
Germination was followed over time by taking photographs at different time points. Image analysis was performed automatically with a macro which was developed using the Image J software. A kinetic analysis of germination was carried out by fitting a trend curve. Three parameters were calculated from the trend curve: the Tso (time taken for 50% germination; speed of germination); the slope of the curve (the uniformity of germination) and the plateau (the total percentage of germinated seeds).
The treatments with a given compound were performed at 4 concentrations 2, 10, 50, and 250 μM.

`COC(=O)C(/C=C/C(C)(C)OC)=C/OC1C=C(C)C(=O)O1` (centres unmarked) [Compound P-12, methyl (E,2E)-5-methoxy-5-methyl-2-[(4-methyl-5-oxo-2H-furan-2-yl)oxymethylene]hex-3-enoate]: the IC50 in test [1] is below 3000 nM. Also, in test [2], the change in vivo at 250 µM is above 50%.

As for `COC(=O)C(/C=C/C(C)(C)C(=O)N(C)C)=C/OC1C=C(C)C(=O)O1` (centres unmarked) [Compound P-20, methyl (E,2E)-6-(dimethylamino)-5,5-dimethyl-2-[(4-methyl-5-oxo-2H-furan-2-yl)oxymethylene]-6-oxo-hex-3-enoate], the IC50 in test [1] was below 3000 nM.

Take `COC(=O)/C=C/C(=C\OC1C=C(C)C(=O)O1)C(=O)OC` (centres unmarked) [Compound P-8, dimethyl (E,4E)-4-[(4-methyl-5-oxo-2H-furan-2-yl)oxymethylene]pent-2-enedioate]: the IC50 in test [1] is below 3000 nM. In test [2], the change in vivo at 250 µM is above 50% and the percent reduction of T50 germination time vs untreated control at 250 µM is above 5%.

On to `COC(=O)C(/C=C/C1(C)CC1)=C/OC1C=C(C)C(=O)O1` (centres unmarked) [Compound P-7, methyl (E,2E)-4-(1-methylcyclopropyl)-2-[(4-methyl-5-oxo-2H-furan-2-yl)oxymethylene]but-3-enoate], for which, in test [1], the IC50 was below 3000 nM.

As for `COC(=O)C(/C=C/C1CCC(F)(F)CC1)=C/OC1C=C(C)C(=O)O1` (centres unmarked) [Compound P-2, methyl (E,2E)-4-(4,4-difluorocyclohexyl)-2-[(4-methyl-5-oxo-2H-furan-2-yl)oxymethylene]but-3-enoate], in test [1], the IC50 is below 3000 nM. In test [2], the change in vivo at 250 µM was above 50% and the percent reduction of T50 germination time vs untreated control at 250 µM is above 5%.

Consider `COC(=O)C(/C=C/C12CC3CC(CC(C3)C1)C2)=C/OC1C=C(C)C(=O)O1` (centres unmarked) [Compound P-4, methyl (E,2E)-4-(1-adamantyl)-2-[(4-methyl-5-oxo-2H-furan-2-yl)oxymethylene]but-3-enoate], for which, in test [1], the IC50 was below 3000 nM. In test [2], the percent reduction of T50 germination time vs untreated control at 250 µM is above 5%.

For `COC(=O)C(/C=C/C1(C)CCCC1)=C/OC1C=C(C)C(=O)O1` (centres unmarked) [Compound P-6, methyl (E,2E)-4-(1-methylcyclopentyl)-2-[(4-methyl-5-oxo-2H-furan-2-yl)oxymethylene]but-3-enoate], the IC50 in test [1] is below 3000 nM. Besides, in test [2], the change in vivo at 250 µM was above 50% and the percent reduction of T50 germination time vs untreated control at 250 µM is above 5%.

As for `COC(=O)/C(C=C(C)C)=C/OC1C=C(C)C(=O)O1` (centres unmarked) [Compound P-9, methyl (2E)-4-methyl-2-[(4-methyl-5-oxo-2H-furan-2-yl)oxymethylene]pent-3-enoate], in test [2], the change in vivo at 250 µM is above 50% and the percent reduction of T50 germination time vs untreated control at 250 µM was above 5%.

In the case of `C=C(C)C1(/C=C/C(=C\OC2C=C(C)C(=O)O2)C(=O)OC)C(=O)CC1(C)C` (centres unmarked) [Compound P-15, methyl (E,2E)-4-(1-isopropenyl-2,2-dimethyl-4-oxo-cyclobutyl)-2-[(4-methyl-5-oxo-2H-furan-2-yl)oxymethylene]but-3-enoate], the IC50 in test [1] was below 3000 nM. Moreover, in test [2], the change in vivo at 250 µM was above 50% and the percent reduction of T50 germination time vs untreated control at 250 µM is above 5%.

`COC(=O)C(/C=C/C(C)(C)N(C)C(C)=O)=C/OC1C=C(C)C(=O)O1` (centres unmarked) [Compound P-17, methyl (E,2E)-5-[acetyl(methyl)amino]-5-methyl-2-[(4-methyl-5-oxo-2H-furan-2-yl)oxymethylene]hex-3-enoate]: the IC50 in test [1] is below 3000 nM.

For the molecule `COC(=O)C(/C=C/C1CCCCC1)=C/OC1OC(=O)C(C)=C1C` (centres unmarked) [Compound P-3, methyl (E,2E)-4-cyclohexyl-2-[(3,4-dimethyl-5-oxo-2H-furan-2-yl)oxymethylene]but-3-enoate], in test [2], the change in vivo at 250 µM was above 50% and the percent reduction of T50 germination time vs untreated control at 250 µM is above 5%.

With `COC(=O)C(/C=C/C(C)(C)C)=C/OC1OC(=O)C(C)=C1C` (centres unmarked) [Compound P-10, methyl (E,2E)-2-[(3,4-dimethyl-5-oxo-2H-furan-2-yl)oxymethylene]-5,5-dimethyl-hex-3-enoate], in test [2], the change in vivo at 250 µM was above 50% and the percent reduction of T50 germination time vs untreated control at 250 µM is above 5%.

As for `COC(=O)C(/C=C/C(C)(C)C#N)=C/OC1C=C(C)C(=O)O1` (centres unmarked) [Compound P-16, methyl (E,2E)-5-cyano-5-methyl-2-[(4-methyl-5-oxo-2H-furan-2-yl)oxymethylene]hex-3-enoate], in test [1], the IC50 was below 3000 nM.

`COC(=O)C(/C=C/C(C)(C)C(=O)OC)=C/OC1C=C(C)C(=O)O1` (centres unmarked) [Compound P-19, dimethyl (E,5E)-2,2-dimethyl-5-[(4-methyl-5-oxo-2H-furan-2-yl)oxymethylene]hex-3-enedioate]: the IC50 in test [1] was below 3000 nM. Further, in test [2], the change in vivo at 250 µM is above 50% and the percent reduction of T50 germination time vs untreated control at 250 µM was above 5%.
